Patent publication US20100143477A1, “Methods and Compositions for Stimulating the Proliferation or Differentiation of Stem Cells with Substance Por an Analog Thereof” (Immuneregen Biosciences, Inc., priority 2007, published 2010)

Tests used:
[1] = test system: CFU-Mk, platelet precursors (human bone marrow mononuclear cells); test: Colony forming unit (CFU) assay (Example 6); assay type: cell-based; conditions: for effect of antagonist on substance P enhanced platelet colony formation: in the presence of substance P
Description: (§1) As stem cells differentiate in response to growth factors, they form a colony of cells with distinct morphologies that can be visualized using a microscope. This study examined the formation of three different progenitor cell populations, erythrocytes, platelets and granulocytes/macrophages.
(§2) Bone marrow aspirates were obtained from three healthy donors between 18 and 35 years of age following appropriate guidelines and protocols. Bone marrow mononuclear cells were isolated using a Ficoll-Hypaque density gradient, separating red blood cells from the others. Cells from each donor were processed independently and used for setting up individual experiments to assess the effects, if any, of donor variability.
(§3) Cells (1×10^5) were plated in duplicate onto 35 mm tissue culture plates for each condition tested and set up as described in Rameshwar et al. 1993, Blood. 81:2, 391-398. Erythroid and granulocyte/macrophage cultures were plated using methylcellulose and megakaryocyte cultures (platelet precursors) used a collagen-based support (StemCell Technologies, Vancouver, Canada, catalogue #04973). […] CP 99,994 (Pfizer) was used as a neurokinin-1 receptor antagonist and SR 48968 (Sanofi) was used as a neurokinin-2 receptor antagonist.
Cultures were set up with limited cytokines and growth factors which would promote differentiation of one progenitor per plate.
Each compound was dissolved in endotoxin-free water to a final concentration of 0.1 mM. After reconstitution, the solutions were aliquoted into siliconized microcentrifuge tubes and exposed to nitrogen gas, eliminating oxygen in the head space of the enclosure. All aliquots were stored at −20° C. until use and used within one month of reconstitution. See, Rameshwar, et al. 1997, J. Immunol.
Cultures were incubated at 37° C. with 5% CO2 for approximately 14 days, after which colonies were manually enumerated using a microscope. […]

[2] = test system: human bone marrow-derived hematopoietic cell populations; test: CFC and iATP assays, all 7 cell populations (Example 3); assay type: cell-based; conditions: most of populations; 14 days; up to 1 nM
Method: The compound was dissolved in 1 ml of Iscove's Modified Dulbecco's Medium (IMDM) and a serial dose response prepared in single log doses so that the final dose in culture ranged from 1 nM to 1×10^−16 M. All working dilutions were performed in IMDM.
Starting with human bone marrow aspirate, the mononuclear cell (MNC) fraction was separated from the whole bone marrow using Ficoll-Paque density gradient centrifugation. […] The cell concentration was adjusted so that the final cell concentration in culture was 10,000 cells/well.
Human bone marrow MNC was dissolved in IMDM and cultured at a concentration of 10,000 cell/well in a CAMEO™-96 Master Mix (HemoGenix, Inc., Colorado Springs, Colo.). […]
Prior to processing all 96-well plates, the total colony counts/well were manually enumerated by microscopy. The mean, standard deviation and percent coefficient of variation was calculated for all groups, transposed and plotted. The intracellular ATP (iATP) concentration was measured after manual enumeration.
The output of the luminometer is non-standardized Relative Luminescence Units (RLU). […] This allowed the RLU values to be automatically calculated into standardized ATP (μM) units. For both the RLU and ATP values derived from each well, the luminometer software calculated the mean, standard deviation and percent coefficient of variation.

[3] = test system: human-derived hematopoietic cell populations; test: CFC assay, multi-donor study, all seven cell populations (Example 4); assay type: cell-based; conditions: highest doses (up to 1 nM); three donors
Method: Compound was dissolved in 1 ml of Iscove's Modified Dulbecco's Medium (IMDM) and a serial dose response was prepared in single log doses so that the final dose in culture ranged from 1 nanoMolar (nM) to 1×10^−16 M. All working dilutions were performed in IMDM. Cell cultures from each donor were started at different times and a fresh solution of Homspera® was prepared for each individual experiment.
Starting with human bone marrow aspirate, the mononuclear cell (MNC) fraction from each aspirate was separated from whole bone marrow using Ficoll-Paque density gradient centrifugation.
The colony-forming cell (CFC) assay was performed using optimal growth factor/cytokine concentrations. The reagents and conditions were similar to those used in Example 3, except that no ATP measurements were performed. The MNC fraction from each bone marrow donor was dissolved in IMDM and cultured at a concentration of 5,000 cells/well in a Culture Master Mix (HemoGenix, Inc., Colorado Springs, Colo.). […]
The mean, standard deviation and percent coefficient of variation was calculated for all groups, transposed and plotted as a function of donor. The percent from control values were calculated and also plotted as a function of donor. […]

[4] = test system: BFU-E (human bone marrow mononuclear cells); test: Colony forming unit (CFU) assay (Example 6); assay type: cell-based; conditions: approximately 14 days; FIG. 1
Description: as §1, §2
as §3, with “antagonist. […]” for “antagonist.”

[5] = test system: CFU-E (human bone marrow mononuclear cells); test: Colony forming unit (CFU) assay (Example 6); assay type: cell-based; conditions: approximately 14 days; FIG. 2
Description: as §1, §2
as §3, with “antagonist. […]” for “antagonist.”

[6] = test system: neurokinin-1 (NK1) receptor; NK2 and NK3 receptors; conditions: Tousignant et al. 1990; cited from earlier work

COc1ccccc1CN[C@H]1CCCN[C@H]1c1ccccc1 [CP-99,994]
effect of antagonist on substance P enhanced platelet colony formation [1]: blocks the stimulatory activity of substance P

CC(C)C[C@H](NC(=O)CN(C)C(=O)[C@H](Cc1ccccc1)NC(=O)[C@H](Cc1ccccc1)NC(=O)[C@H](CCC(N)=O)NC(=O)[C@H](CCC(N)=O)NC(=O)[C@@H]1CCCN1C(=O)[C@H](CCCCN)NC(=O)[C@@H]1CCCN1C(=O)[C@@H](N)CCCNC(=N)N)C(=O)N[C@@H](CCS(C)(=O)=O)C(N)=O [Homspera®]
cytotoxicity [2]: apparent absence of distinct cytotoxicity | toxicity [3]: no apparent toxicity

CC(=O)NC1(c2ccccc2)CCN(CC[C@H](CN(C)C(=O)c2ccccc2)c2ccc(Cl)c(Cl)c2)CC1 [SR48968]
effect of antagonist on substance P enhanced platelet colony formation [1]: no effect on substance P activity

RPKPQQFFGLM [substance P]
effective concentration, platelet precursors (CFU-Mk) [1]: 10^−8 M | BFU-E colony formation, increase from control values [4]: ~60% | CFU-E colony formation, enhancement from control values [5]: about 70% | neurokinin receptor specificity [6]: can also activate the neurokinin-2 (NK2) and neurokinin-3 (NK3) receptors
